{
  "source": "patent US20020028193A1",
  "about": "“Recombinant beta2-adrenergic receptor delivery and use in treating airway and vascular diseases” (priority 2000, published 2002)",
  "molecules": {"B1": {"name": "GRE5 (rat beta2AR gene, 35 bp oligonucleotide; core printed only) (dsDNA)", "DNA 1": "GGGTGAGCTGTTCT", "DNA 2": "AGAACAGCTCACCC"}, "B2": {"name": "m1GRE5 (core printed only) (dsDNA)", "DNA 1": "GGGTGAGCTATTCT", "DNA 2": "AGAATAGCTCACCC"}},
  "key": {"[1]": {"target": "T1, β2AR (Rattus norvegicus, UniProt P10608)", "T1 sequence (P10608 whole entry)": "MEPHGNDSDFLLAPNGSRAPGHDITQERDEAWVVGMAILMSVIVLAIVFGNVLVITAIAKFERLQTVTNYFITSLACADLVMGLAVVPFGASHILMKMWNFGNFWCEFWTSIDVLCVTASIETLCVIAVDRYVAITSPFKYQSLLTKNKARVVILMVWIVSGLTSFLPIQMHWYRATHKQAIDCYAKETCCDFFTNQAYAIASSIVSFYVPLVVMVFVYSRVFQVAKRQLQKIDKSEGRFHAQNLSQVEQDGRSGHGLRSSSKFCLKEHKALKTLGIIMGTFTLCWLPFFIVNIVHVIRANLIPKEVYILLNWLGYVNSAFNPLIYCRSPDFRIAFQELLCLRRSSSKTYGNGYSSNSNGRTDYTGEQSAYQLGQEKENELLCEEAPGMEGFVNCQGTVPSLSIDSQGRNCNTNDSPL", "conditions": "SPOC1 cell membranes"}, "[2]": {"system": "β2AR-luciferase fusion genes", "assay": "Dexamethasone induction of β2AR-luciferase fusion genes transiently transfected into HepG2 cells", "format": "cell-based, human", "conditions": "pβ2AR(−643/+126); 0.1 μM dexamethasone, 8 hrs", "procedure": "HepG2 cells were transiently transfected with pRShGRα, pRSVβ-ga1, and either pβ2AR(−62/+126), pβ2AR(−152/+126), pβ2AR(−643/+126), pβ2AR(−1115/+126), pβ2AR(−2552/+126), pβ2AR(−3129/+126), or N-600 prATLUC. Transfected cells were incubated for 48 hours prior to addition of dexamethasone. Luciferase activity for each construct is expressed relative to that obtained with pβ2AR(−62/+126) in the absence of dexamethasone.\nHuman HepG2 cells were transiently transfected with pRShGRα, pRSVβ-gal, and either pβ2AR(−3129/+126) or pβ2ARm1 (−3129/+126) as described in the specification. After transfection, the cells were incubated for 8 hours in either the absence or presence of 0.1 μM dexamethasone and cells were harvested. Values are means±S.E. of data from five independent experiments, each performed in triplicate. Asterisks indicate a significant (p<0.05) difference in luciferase activity from untreated and dexamethasone-treated cells as determined by Student's t-test.\nIn order to determine whether the six putative GREs were functional, six β2AR-luciferase fusion gene deletion mutants were generated. […] To test the effect of dexamethasone on expression of the truncated β2AR-luciferase fusion genes, HepG2 cells transfected with each of the six fusion genes were incubated with either vehicle or 0.1 μM dexamethasone for 8 hrs, and luciferase activity was determined. […]"}, "[3]": {"system": "GRE-pT81LUC fusion genes", "assay": "Dexamethasone induction of putative GREs fused to heterologous thymidine kinase promoter (pT81LUC) in HepG2 cells", "format": "cell-based, human", "conditions": "0.1 μM dexamethasone", "procedure": "Plasmid constructs with the luciferase gene under the control of the tk promoter and various putative GREs (see FIG. 8 for sequences) were tested for luciferase activity after transfection into HepG2 cells that were co-transfected with pRShGRα. Transfected cells were incubated for 48 hours prior to addition of 0.1 μM dexamethasone.\nTo further examine the functionality of the putative glucocorticoid response elements, fragments containing either GRE1, GRE5, or GRE2, GRE3 and GRE4 together were fused to pT81LUC, a luciferase expression plasmid driven by a minimal thymidine kinase promoter.^102 Sequences of the double stranded oligonucleotides containing GRE1, GRE5 and the MMTV GRE are shown in FIG. 10. […] Activity of GRE5-pT81LUC was induced 3.2-fold in the presence of 0.1 μM dexamethasone (FIG. 12), a value that was higher than that observed with any of the β2AR-luciferase fusion genes that included GRE5. Activity of GRE1-pT81LUC was not induced by 0.1 μM dexamethasone (FIG. 12). […] This level of fold-induction was similar to that obtained with MMTVsequence fused to pT81LUC."}, "[4]": {"system": "β2AR-luciferase fusion genes", "assay": "Dexamethasone induction of β2AR-luciferase fusion genes in transiently transfected SPOC1 cells", "format": "cell-based, rat", "conditions": "pβ2AR(−3129/+126) in SPOC1 cells; 0.1 μM dexamethasone, 8 hrs"}, "[5]": {"target": "T1, β2AR", "assay": "Cyclic AMP accumulation in SPOC1 cells (radioimmunoassay)", "format": "cell-based", "set-up": "Because SPOC1 cells express a wild-type β2AR; endogenous in cells; host or cells: SPOC1 rat tracheal epithelial cells", "procedure": "Cyclic AMP accumulation was measured by radioimmunoassay. Significant differences were determined by one way ANOVA and Neuman-Keuls test.\nIn order to determine if the recombinant β2AR expressed in clonal SPOC1 cells is able to functionally couple to adenylyl cyclase, cyclic AMP radioimmunoassays are performed using lysates. Mock-infected and clonal SPOC1 cells are plated at a density of 100,000 cells/well in 12-well dishes (Costar, Cambridge, Mass.). Cells are treated with adrenergic agonists and the phosphodiesterase inhibitor isobutylmethylxanthine (IBMX) for 10 min. Cellular cyclic AMP levels are determined by radioimmunoassay using the Biotrak CAMP Assay System (Amersham Life Science, Arlington Heights, Ill.). […] These experiments are repeated four times with four different SPOC1 cell platings."}, "[6]": {"system": "mucociliary clearance", "conditions": "inhaled, humans, controls and asthmatic individuals; cited from earlier work"}, "[7]": {"target": "glucocorticoid receptor alpha (expressed from pRShGRalpha) (Homo sapiens) (UniProt P04150)", "sequence (P04150 whole entry)": "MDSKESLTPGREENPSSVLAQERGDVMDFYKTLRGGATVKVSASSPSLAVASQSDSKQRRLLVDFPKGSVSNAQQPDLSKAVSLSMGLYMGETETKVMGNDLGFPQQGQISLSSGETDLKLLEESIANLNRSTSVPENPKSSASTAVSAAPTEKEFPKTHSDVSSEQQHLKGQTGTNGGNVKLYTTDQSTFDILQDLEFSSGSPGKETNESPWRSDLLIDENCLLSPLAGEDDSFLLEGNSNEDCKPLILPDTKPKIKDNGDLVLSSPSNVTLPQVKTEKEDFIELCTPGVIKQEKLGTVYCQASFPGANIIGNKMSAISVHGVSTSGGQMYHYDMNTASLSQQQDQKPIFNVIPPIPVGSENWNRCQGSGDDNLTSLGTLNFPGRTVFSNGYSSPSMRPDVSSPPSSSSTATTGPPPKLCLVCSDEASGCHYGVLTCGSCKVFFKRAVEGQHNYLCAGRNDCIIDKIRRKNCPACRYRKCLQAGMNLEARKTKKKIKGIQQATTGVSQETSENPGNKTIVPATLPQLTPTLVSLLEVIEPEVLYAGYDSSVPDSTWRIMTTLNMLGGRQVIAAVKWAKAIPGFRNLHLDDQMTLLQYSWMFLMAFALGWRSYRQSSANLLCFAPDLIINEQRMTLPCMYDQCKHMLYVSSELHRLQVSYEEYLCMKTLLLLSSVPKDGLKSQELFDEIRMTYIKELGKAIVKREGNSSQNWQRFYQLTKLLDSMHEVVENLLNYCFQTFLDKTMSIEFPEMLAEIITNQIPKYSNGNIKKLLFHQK", "assay": "cell_activity", "conditions": "MMTV-pT81LUC in HepG2, 0.1 uM dexamethasone"}, "[8]": {"target": "glucocorticoid receptor alpha (expressed from pRShGRalpha) (Homo sapiens, UniProt P04150 P04150:1-777)", "sequence (P04150 whole entry, the tested form may be a part, one chain of several)": "as the sequence (P04150 whole entry) above", "assay": "cell_activity; GRE5-pT81LUC in HepG2, 0.1 uM dexamethasone", "conditions": "tags: co-transfected expression plasmid pRShGRalpha in HepG2 cells; chain copies: 2; label: 32P", "from_the_text": "To further examine the functionality of the putative glucocorticoid response elements, fragments containing either GRE₁, GRE₅, or GRE₂, GRE₃ and GRE₄ together were fused to pT81LUC, a luciferase expression plasmid driven by a minimal thymidine kinase promoter.¹⁰² Sequences of the double stranded oligonucleotides containing GRE₁, GRE₅ and the MMTV GRE are shown in FIG. 10."}, "[9]": {"target": "glucocorticoid receptor (recombinant human GR) (Homo sapiens, UniProt P04150 P04150:1-777)", "sequence (P04150 whole entry, one chain of several)": "as the sequence (P04150 whole entry) above", "assay": "competition; unlabeled competitor did not compete with labeled GRE5 at up to 250-fold excess", "conditions": "chain copies: 2", "procedure": "To further characterize the ability of GRE₅ to bind glucocorticoid receptor in vitro, we performed electrophoretic mobility shift assays with recombinant human glucocorticoid receptor and serial dilutions of various competitor oligonucleotides was performed."}},
  "note": "“And” between values parts separate entries of the source, which are not always exact repeats. Equal entries are not always repeated.",
  "data": [
    {"molecule": "CC(C)(C)NCC(O)COc1cccc2[nH]c(C#N)c(I)c12", "note": "(stereo not shown) [[^125I]CYP, [^125I]cyanoiodopindolol]", "values": [
      {"measurement": "binding site concentration", "setting": "[1]; [125I]CYP saturation", "value": 60, "unit": "fmol/mg protein"},
      {"measurement": "Kd", "setting": "[1]; read-out: [125I]CYP dissociation constant, 37° C., 2 hour, nonspecific binding 0.1 μM (−)-propranolol, representative Scatchard plot", "value": 0.01, "unit": "nM"}
    ]},
    {"molecule": "C[C@@H]1C[C@H]2[C@@H]3CCC4=CC(=O)C=C[C@]4(C)[C@@]3(F)[C@@H](O)C[C@]2(C)[C@@]1(O)C(=O)CO", "note": "[dexamethasone]", "values": [
      {"measurement": "induction of luciferase activity", "setting": "[2]", "value": "approximately 1.5 fold"},
      {"measurement": "induction of luciferase activity", "setting": "[3]; GRE5-pT81LUC", "value": 3.2, "unit": "fold"},
      {"measurement": "induction of luciferase activity", "setting": "[3]; MMTV-pT81LUC fusion gene (positive control)", "value": "~4", "unit": "fold"},
      {"measurement": "induction in luciferase activity", "setting": "[4]", "value": "~2", "unit": "fold"}
    ]},
    {"molecule": "CC(C)NCC(O)c1ccc(O)c(O)c1", "note": "(stereo not shown) [isoproterenol]", "values": [
      {"measurement": "Cyclic AMP production", "setting": "[5]", "value": "3.17±0.57 fmol/min/mg protein and 5.95±1.4 fmol/min/mg protein"}
    ]},
    {"molecule": "CCC(NC(C)C)C(O)c1ccc(O)c2[nH]c(=O)ccc12", "note": "(stereo not shown) [procaterol]", "values": [
      {"measurement": "effect on mucociliary clearance", "setting": "[6]", "value": "no effect"}
    ]},
    {"molecule": "CC(C)(C)NCC(O)c1cc(O)cc(O)c1", "note": "(stereo not shown) [terbutaline]", "values": [
      {"measurement": "effect on mucociliary clearance", "setting": "[6]", "value": "increases"}
    ]},
    {"molecule": "MMTV GRE", "values": [
      {"measurement": "activity (fold induction)", "setting": "[7]", "value": 4}
    ]},
    {"molecule": "isobutylmethylxanthine [IBMX]", "values": [
      {"measurement": "Cyclic AMP accumulation", "setting": "[5]; 100 μM IBMX, 10 min at 37° C., control 0.27±0.08, statistically insignificant increase", "value": "0.40±0.04", "unit": "fmol/min/mg protein"}
    ]},
    {"molecule": "B1", "values": [
      {"measurement": "activity", "setting": "[8]", "value": 3.2, "unit": "fold induction"}
    ]},
    {"molecule": "B2", "values": [
      {"measurement": "binding result", "setting": "[9]", "value": "no binding"}
    ]}
  ]
}
